Publication PMC8850191, “Mechanisms of inhibition and activation of extrasynaptic αβ GABAA receptors” (Nature, 2022)
Where “and” joins values, the source holds several entries; their conditions need not be identical. Equal values may be shown once. Read-outs that look alike come from different tables or passages of the source.

Tests used:
α1β3γ2WT [1] = molecular target: T1, α1β3γ2WT (Homo sapiens, UniProt P14867+P18507+P28472); test: GABA concentration used for single channel recording (~EC95); assay type: cell-based; details: concentration used for single channel recordings
T1 construct: expressed in transfected cells; host or cells: HEK 293 cells, transient calcium-phosphate transfection, α1:β3:γ2:GFP 1:1:3:1
Experimental: Single GABA-activated channel currents were recorded in outside-out patches from transfected HEK 293 cells at –70 mV holding potential. Channel currents were recorded using an Axopatch 200B and filtered at 5 kHz (4-pole Bessel filter) before digitizing at 20 kHz with a Digidata 1322A. The fixed time resolution of the system was set at 80 μs. WinEDR was used for analysing single channel data. The single-channel current was determined from compiling channel current amplitude histograms and fitting Gaussian components to define the mean current, s.d. and the total area of the component. […] Individual open and closed dwell times were measured using a 50% threshold cursor applied to the main single channel current amplitude in each patch. The subsequent detection of open and closed events formed the basis of an idealized single channel record used for compiling the dwell time distributions. Frequency distributions were constructed from the measured individual open and closed times and analysed by fitting a mixture of exponentials, defined by: y(t)=∑i=1nAi/τi×e^(−t/τi) where Ai is the area of the ith component to the distribution and τi represents the corresponding exponential time constant. […] An F-test determined the optimal number of exponential components that were required to fit the individual dwell time distributions. […]

human GABAA α1β3 (WT) [2] = molecular target: T2, human GABAA α1β3 (WT) (Homo sapiens, UniProt P14867+P28472); test: Whole-cell patch clamp, GABA concentration response, HEK 293 cells; assay type: cell-based; parameters: expressed in transfected cells; host or cells: HEK 293 cells, transient calcium-phosphate transfection, α1:β3:GFP 1:1:1
T2 sequence (P14867 28-456): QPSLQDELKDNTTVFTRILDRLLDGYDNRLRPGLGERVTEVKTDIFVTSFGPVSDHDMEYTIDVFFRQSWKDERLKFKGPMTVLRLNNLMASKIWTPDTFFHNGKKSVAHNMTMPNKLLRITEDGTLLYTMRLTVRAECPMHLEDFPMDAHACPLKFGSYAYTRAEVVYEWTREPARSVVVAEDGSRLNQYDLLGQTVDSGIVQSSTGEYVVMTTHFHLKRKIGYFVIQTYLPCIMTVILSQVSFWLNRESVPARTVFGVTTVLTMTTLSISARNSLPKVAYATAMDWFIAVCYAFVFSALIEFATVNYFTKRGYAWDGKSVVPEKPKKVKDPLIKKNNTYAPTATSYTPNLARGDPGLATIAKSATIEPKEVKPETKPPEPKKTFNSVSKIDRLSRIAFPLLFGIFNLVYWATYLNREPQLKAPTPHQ
T2 sequence (P28472 26-473): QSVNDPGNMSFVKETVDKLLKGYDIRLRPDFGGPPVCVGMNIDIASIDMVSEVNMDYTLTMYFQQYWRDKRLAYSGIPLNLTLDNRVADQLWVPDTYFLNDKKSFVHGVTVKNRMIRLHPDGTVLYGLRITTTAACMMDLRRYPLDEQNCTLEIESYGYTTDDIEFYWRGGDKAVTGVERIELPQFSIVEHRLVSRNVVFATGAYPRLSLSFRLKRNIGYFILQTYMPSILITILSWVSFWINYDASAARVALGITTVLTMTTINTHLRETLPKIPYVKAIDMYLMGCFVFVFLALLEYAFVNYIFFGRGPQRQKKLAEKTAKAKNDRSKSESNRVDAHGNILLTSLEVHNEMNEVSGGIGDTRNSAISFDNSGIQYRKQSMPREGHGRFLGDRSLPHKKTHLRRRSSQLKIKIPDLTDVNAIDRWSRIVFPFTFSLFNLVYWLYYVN
Experimental: (§1) Whole-cell responses were recorded in patch clamp experiments from HEK 293 cells transiently transfected with human GABAA α1β3 (WT), α1GLIVIβ3BRIL (α1β3cryo-EM; see ‘Constructs’) or α1β3γ2 (WT). HEK 293 cells were grown in DMEM supplemented with 10% v/v fetal bovine serum, 100 U ml^−1 penicillin-G and 100 µg ml^−1 streptomycin (37 °C; 95% air/5% CO2), and transfected using a calcium-phosphate precipitation method with α1:β3:GFP or α1:β3:γ2:GFP cDNAs in a ratio of 1:1:1 or 1:1:3:1, respectively, 12–24 h before experimentation. Recordings were performed with cells continuously perfused with Krebs solution composed of (mM): 140 NaCl, 4.7 KCl, 1.2 MgCl2, 2.52 CaCl2, 11 Glucose and 5 HEPES (pH 7.4; ~300 mOsm). Patch pipettes (TW150F-4; WPI; 3–4 MΩ) were filled with an internal solution containing (mM): 140 KCl, 1 MgCl2, 11 EGTA, 10 HEPES,1 CaCl2, 2 K-ATP (pH 7.2; ~305 mOsm). […] Cells were voltage-clamped at −40 mV with an Axopatch 200B amplifier (Molecular Devices), currents were digitized at 50 kHz via a Digidata 1322A (Molecular Devices), filtered at 5 kHz (−36 dB), and acquired using Clampex 10.2 (Molecular Devices). Series resistance was compensated at 60–70% (lag time 10 μs).
(§2) Peak current responses and desensitization rates were obtained using Clampfit 10.2 (Molecular Devices).

α1β3γ2WT [3] = molecular target: T1, α1β3γ2WT; test: Probability of activation (PA), whole-cell, saturating GABA versus GABA + 1 mM pentobarbitone; assay type: cell-based; details: n = 6
Experimental: as §1

[4] = molecular target: α1β3 cryo-EM construct (α1β3CryoEM) (Homo sapiens, UniProt P14867+P28472, DEL344-414/G341Q/R340S/S415R/S417A/V416A/Y342P); details: for IC50: mean pIC50 converted
From the text: The α1 intracellular M3–M4 loop amino acids 313–391 (RGYA…NSVS) were substituted by the SQPARAA sequence[46]. […] The mature engineered α1 construct with a 1D4 purification tag derived from bovine rhodopsin ([sequence]) that is recognized by the Rho-1D4 monoclonal antibody (University of British Columbia)[47],[48] was cloned into the pHLsec vector after the vector secretion signal[49], ending [sequence]. […] The engineered β3 construct was cloned into pHLsec after the vector secretion sequence without any tags.
as §1
(§3) For free Zn^2+ concentration experiments, the Zn^2+ chelator tricine was used to precisely control Zn^2+ concentration and eliminate background Zn^2+ contamination. Krebs solution was supplemented with 10 mM tricine and pH corrected to 7.4.
as §2

αβγ receptors = details: one β-subunit His replaced by Ile (γ-subunit), relative to αβ; cited from earlier work
human GABAA α1β3 (WT) [5] = molecular target: T2, human GABAA α1β3 (WT); test: Whole-cell patch clamp, Zn2+ inhibition of GABA currents, HEK 293 cells; assay type: cell-based; parameters: expressed in transfected cells; host or cells: HEK 293 cells, transient calcium-phosphate transfection, α1:β3:GFP 1:1:1
Experimental: as §1, §3, §2

αβδ receptors = details: one β-subunit His replaced by Ser (δ-subunit), relative to αβ; cited from earlier work
α1β3 = system: α1β3; parameters: method as in earlier work; details: muscimol versus muscimol + propofol; ref 2020 Akk G Steinbach JH, PMID:32873746; cited from earlier work
GABA-A receptors = details: author rebuttal, peer review file; reference not given; cited from earlier work
α2-GABAAR subunit = details: Lys in α2 at the position of α1 Ser69; cited from earlier work
[6] = 66 nM free Zn2+ (tricine-controlled), α1β3 cryo-EM construct, mean ± s.e.m., n = 7
[7] = 66 nM free Zn2+ (tricine-controlled), wild-type, mean ± s.e.m., n = 7

T1 sequence (P18507 40-475, one chain of several): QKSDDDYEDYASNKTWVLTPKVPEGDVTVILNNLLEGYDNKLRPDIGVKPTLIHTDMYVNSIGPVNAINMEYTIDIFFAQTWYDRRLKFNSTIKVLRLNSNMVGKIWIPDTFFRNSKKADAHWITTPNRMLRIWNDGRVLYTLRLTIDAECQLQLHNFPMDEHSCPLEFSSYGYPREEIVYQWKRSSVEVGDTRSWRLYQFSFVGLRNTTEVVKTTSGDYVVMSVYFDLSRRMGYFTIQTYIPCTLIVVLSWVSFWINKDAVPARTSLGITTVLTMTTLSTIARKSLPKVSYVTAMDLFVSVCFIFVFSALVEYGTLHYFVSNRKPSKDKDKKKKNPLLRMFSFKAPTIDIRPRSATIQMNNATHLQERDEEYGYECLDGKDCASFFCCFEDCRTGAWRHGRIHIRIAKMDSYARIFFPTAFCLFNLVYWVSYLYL
Chain of α1β3 cryo-EM construct (α1β3CryoEM) (P14867 with tags, fused parts or gaps R340S/G341Q/Y342P/DEL344-414/S415R/V416A/S417A): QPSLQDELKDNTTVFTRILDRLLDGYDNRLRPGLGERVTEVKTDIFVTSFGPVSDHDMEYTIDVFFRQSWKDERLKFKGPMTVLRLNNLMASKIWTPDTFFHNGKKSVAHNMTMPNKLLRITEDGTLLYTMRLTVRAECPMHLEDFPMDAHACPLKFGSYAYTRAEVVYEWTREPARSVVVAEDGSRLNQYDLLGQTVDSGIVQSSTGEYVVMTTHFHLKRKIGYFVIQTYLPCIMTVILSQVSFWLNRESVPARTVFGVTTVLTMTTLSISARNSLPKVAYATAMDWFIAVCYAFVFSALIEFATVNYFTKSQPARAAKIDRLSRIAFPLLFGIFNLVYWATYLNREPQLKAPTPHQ
Chain of α1β3 cryo-EM construct (α1β3CryoEM) (P28472 with tags, fused parts or gaps, stated change not applied): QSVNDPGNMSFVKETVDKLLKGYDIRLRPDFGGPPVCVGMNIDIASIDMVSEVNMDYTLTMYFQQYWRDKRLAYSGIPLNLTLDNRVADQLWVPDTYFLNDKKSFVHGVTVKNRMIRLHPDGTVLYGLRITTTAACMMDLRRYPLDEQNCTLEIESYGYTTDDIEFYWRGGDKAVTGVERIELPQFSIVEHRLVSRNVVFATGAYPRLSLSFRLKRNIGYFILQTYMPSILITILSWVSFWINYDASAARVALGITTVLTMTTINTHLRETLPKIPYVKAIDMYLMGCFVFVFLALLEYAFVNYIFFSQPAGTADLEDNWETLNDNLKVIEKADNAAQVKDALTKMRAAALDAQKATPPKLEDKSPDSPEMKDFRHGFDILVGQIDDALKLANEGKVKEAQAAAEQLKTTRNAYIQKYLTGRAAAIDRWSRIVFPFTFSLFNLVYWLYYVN

With `NCCCC(=O)O` [GABA, γ-aminobutyric acid] as the molecule, how does the “GABA ~EC95” value (α1β3γ2WT [1]) read?
Its value is ~100 µM.

What about the “GABA EC20” value (human GABAA α1β3 (WT) [2]; submaximal (20%) response, used for wild-type and cryo-EM construct) of the same molecule?
Its value is 1 µM.

And the “GABA ~EC95” value (human GABAA α1β3 (WT) [2]; α1β3WT, concentration used for single channel recordings)?
Its value is ~30 µM.

And the “probability of activation (PA)” value (α1β3γ2WT [3])?
The value was > 0.9 and 0.94 ± 0.03.

Which “inhibition of EC20 (1 μM) GABA response” value [4, 6] does the source give for `[Zn+2]` [Zn^2+] here?
Its value is 32 ± 2%.

What about the “inhibition of maximal (1 mM) GABA response” value [4, 6] of the same molecule?
Its value is 32 ± 4%.

What about the inhibition ([4]; 20 μM Zn2+, Extended Data Fig. 5a (shows WT and cryo-EM construct)) of the same molecule?
The inhibition was “approximately 90%”.

And the IC50 ([4]; read-out: IC50 Zn2+ inhibition, α1β3CryoEM, absence of tricine)?
Its IC50 is 220 nM.

What about the IC50 ([4]; read-out: IC50 free Zn2+ inhibition, α1β3CryoEM, 10 mM tricine) of the same molecule?
The IC50 was 230 nM.

And the “pIC50 free Zn2+ inhibition” value ([4]; α1β3CryoEM, 10 mM tricine, n = 7)?
Its value is 6.64 ± 0.2.

And the “pIC50 Zn2+ inhibition” value ([4]; α1β3CryoEM, absence of tricine, n = 6)?
Its value is 6.66 ± 0.11.

What about the “reduction of Zn2+ sensitivity” value (αβγ receptors) of the same molecule?
The value was 200 fold.

What about the “inhibition of EC20 (1 μM) GABA response” value (human GABAA α1β3 (WT) [5]; [7]) of the same molecule?
The value was 38 ± 2%.

And the “inhibition of maximal (1 mM) GABA response” value (human GABAA α1β3 (WT) [5]; [7])?
Its value is 36 ± 6%.

And the IC50 (human GABAA α1β3 (WT) [5]; α1β3WT, 10 mM tricine, mean pIC50 converted, read-out: IC50 free Zn2+ inhibition)?
The IC50 was 149 nM.

And the “pIC50 free Zn2+ inhibition” value (human GABAA α1β3 (WT) [5]; α1β3WT, 10 mM tricine, n = 8)?
Its value is 6.83 ± 0.1.

What about the “reduction of Zn2+ sensitivity” value (αβδ receptors) of the same molecule?
Its value is 50 fold.

For `NCc1cc(=O)[nH]o1` [muscimol], which “probability of activation (PA)” value (α1β3) is on record?
The value was ~ 0.6.

B1: α-Cobratoxin (protein)
chain: IRCFITPDITSKDCPNGHVCYTKTWCDAFCSIRGKRVDLGCAATCPTVKTGVDIQCCSTDNCNPFPTRKRP
Which “sensitivity of GABA-A receptors” value (GABA-A receptors) does the source give for B1 here?
Its value is “sub-micromolar”.

And the “reduction of sensitivity to α-CBTx” value (α2-GABAAR subunit)?
The value was “fivefold”.
